{
  "source": "patent US20120283306A1",
  "about": "“MOUSE MODEL FOR AVM” (Georgia Health Sciences University, priority 2011, published 2012)",
  "origin": "cited, not measured here",
  "conditions": "mouse, in vivo",
  "data": [
    {"smiles": "Cc1ccc(-c2cc(C(F)(F)F)nn2-c2ccc(S(N)(=O)=O)cc2)cc1", "note": "[celecoxib]", "values": [
      {"measurement": "tolerability in mice", "value": "well tolerated"}
    ]}
  ]
}
